The source made the active and inactive calls.
Legend:
[1] = ZM109 Env clade C HIV-1 fusion inhibitors, dose response, HeLa effector, CEM target cells, luciferase, cherry-pick (AID 652058); format: functional, cell-based
[2] = inhibitors of HIV Env-driven cell fusion, dose response, cherry-pick (AID 652057); format: functional, cell-based
[3] = inhibitors of clade B AD8 Env fusion, dose response, cell-based, cherry-pick (AID 652062); format: functional;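 further: luciferase signal from cell-cell fusion driven by HIV-1 clade B AD8 Env; potency is for inhibitors of fusion seen as a drop in luminescence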
[4] = HepG2 cell cytotoxicity, dose response, cytotoxicity control, plate reader, cherry-pick, antagonist series (AID 743416); format: functional, cell-based
[5] = MC4R antagonists, dose response, counter-screen for LGR2 antagonist project, cell-based, plate reader, cherry pick (AID 743444); format: functional;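 further: transfected HEK 293 cells stimulated with alpha-MSH peptide; potency of inhibitors of the alpha-MSH evoked signal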
[6] = test system: BJ; experiment: cytotoxicity toward BJ-TERT fibroblasts, dose response, cell-based, RAS-independent, luminescence (AID 1933); format: functional; conditions: Homo sapiens
[7] = LGR2 antagonists, dose response, cell-based, HEK293, CRE-luciferase reporter, cherry pick, set 2 (AID 743343); format: functional;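 further: transfected cells were stimulated with diluted bursicon conditioned medium after compound addition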
[8] = target: T1, Caspase-6 (Homo sapiens, UniProt P55212); experiment: human caspase-6 inhibitors, dose response, biochemical, VEID-R110 fluorescence, cherry-pick (AID 720632)
T1 sequence (P55212 whole entry): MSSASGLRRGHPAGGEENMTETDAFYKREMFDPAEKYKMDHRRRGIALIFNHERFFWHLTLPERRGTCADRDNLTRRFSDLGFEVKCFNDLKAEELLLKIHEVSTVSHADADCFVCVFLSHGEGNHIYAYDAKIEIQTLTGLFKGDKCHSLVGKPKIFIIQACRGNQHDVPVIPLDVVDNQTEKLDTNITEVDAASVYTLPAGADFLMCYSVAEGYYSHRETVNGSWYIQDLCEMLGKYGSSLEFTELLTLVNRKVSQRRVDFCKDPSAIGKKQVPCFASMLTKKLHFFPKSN

[9] = A549 cell cytotoxicity, dose response, cytotoxicity control, plate reader, cherry-pick, antagonist series (AID 743412); format: functional, cell-based
[10] = test system: BJ; experiment: cytotoxicity toward BJ-TERT-LT-ST fibroblasts, dose response, cell-based, RAS-independent, luminescence (AID 1935); format: functional; conditions: Homo sapiens;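 further: BJ fibroblasts immortalized with TERT plus LT and ST oncogenes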
[11] = target: T2, Microphthalmia-associated transcription factor (Homo sapiens, UniProt O75030); experiment: TRPM1 promoter luciferase signal decrease, dose response, MITF inhibitor project, cell-based, SK-MEL-5, cherry-picked, set 3 (AID 493073); format: functional
T2 sequence (O75030 whole entry): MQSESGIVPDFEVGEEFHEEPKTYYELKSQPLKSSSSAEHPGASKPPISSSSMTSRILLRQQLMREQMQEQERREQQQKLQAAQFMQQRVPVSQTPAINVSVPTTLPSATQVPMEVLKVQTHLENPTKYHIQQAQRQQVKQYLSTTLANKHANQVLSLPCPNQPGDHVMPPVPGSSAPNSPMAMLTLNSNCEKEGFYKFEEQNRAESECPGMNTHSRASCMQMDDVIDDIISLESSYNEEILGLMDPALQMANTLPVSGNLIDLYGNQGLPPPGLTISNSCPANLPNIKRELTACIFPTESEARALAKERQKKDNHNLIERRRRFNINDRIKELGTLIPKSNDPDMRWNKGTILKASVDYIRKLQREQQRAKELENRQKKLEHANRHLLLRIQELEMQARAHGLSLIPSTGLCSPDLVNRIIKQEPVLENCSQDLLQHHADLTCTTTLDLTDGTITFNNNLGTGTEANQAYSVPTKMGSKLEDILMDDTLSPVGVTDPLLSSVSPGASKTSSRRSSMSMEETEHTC

[12] = test system: Vero; experiment: cells; format: functional; conditions: Chlorocebus sabaeus
[13] = HEK293 cell cytotoxicity, dose response, cytotoxicity control, plate reader, cherry-picked samples (AID 743446); format: functional, cell-based
[14] = test system: BJ; experiment: cells; format: functional, cell-based; conditions: Homo sapiens
[15] = cytotoxicity toward DRD oncogenic fibroblasts, dose response, cell-based, non-viral oncogenic, luminescence (AID 1934); format: functional; conditions: Homo sapiens
[16] = A Cell Based Secondary Assay To Explore Cytotoxicity of Compounds that Sensitize Mycobacterium Tuberculosis to Beta-Lactam Antibiotics.; format: functional
[17] = control 3'UTR Renilla luciferase suppression, dose response, counter-screen for Shn3 inhibitor project, cell-based, Clone20-Shn3RL, cherry-picked (AID 624133); format: functional
[18] = HepG2 cell cytotoxicity, dose response, cytotoxicity control for Shn3 inhibitor project, CellTiter-Glo, cherry-picked (AID 624134); format: functional, cell-based
[19] = Shn3 3'UTR reporter inhibitors, dose response, cell-based, Clone20 osteoblasts, firefly luciferase, cherry-picked (AID 624132); format: functional;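 further: firefly luciferase luminescence from reporter carrying the Shn3 3'UTR in osteoblasts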
[20] = target: T3, Ubiquitin-conjugating enzyme E2 N (Homo sapiens, UniProt P61088); format: functional;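 further: Dose-response confirmation in a TR-FRET assay detecting UBC13-driven polyubiquitin chain formation, inhibition measured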
T3 sequence (P61088 whole entry): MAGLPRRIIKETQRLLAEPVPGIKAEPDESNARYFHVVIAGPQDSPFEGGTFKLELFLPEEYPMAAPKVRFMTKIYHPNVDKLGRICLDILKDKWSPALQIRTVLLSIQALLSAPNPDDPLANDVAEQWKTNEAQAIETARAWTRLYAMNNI

[21] = target: T4, Apoptotic protease-activating factor 1 (Homo sapiens, UniProt O14727); format: functional
T4 sequence (O14727 whole entry): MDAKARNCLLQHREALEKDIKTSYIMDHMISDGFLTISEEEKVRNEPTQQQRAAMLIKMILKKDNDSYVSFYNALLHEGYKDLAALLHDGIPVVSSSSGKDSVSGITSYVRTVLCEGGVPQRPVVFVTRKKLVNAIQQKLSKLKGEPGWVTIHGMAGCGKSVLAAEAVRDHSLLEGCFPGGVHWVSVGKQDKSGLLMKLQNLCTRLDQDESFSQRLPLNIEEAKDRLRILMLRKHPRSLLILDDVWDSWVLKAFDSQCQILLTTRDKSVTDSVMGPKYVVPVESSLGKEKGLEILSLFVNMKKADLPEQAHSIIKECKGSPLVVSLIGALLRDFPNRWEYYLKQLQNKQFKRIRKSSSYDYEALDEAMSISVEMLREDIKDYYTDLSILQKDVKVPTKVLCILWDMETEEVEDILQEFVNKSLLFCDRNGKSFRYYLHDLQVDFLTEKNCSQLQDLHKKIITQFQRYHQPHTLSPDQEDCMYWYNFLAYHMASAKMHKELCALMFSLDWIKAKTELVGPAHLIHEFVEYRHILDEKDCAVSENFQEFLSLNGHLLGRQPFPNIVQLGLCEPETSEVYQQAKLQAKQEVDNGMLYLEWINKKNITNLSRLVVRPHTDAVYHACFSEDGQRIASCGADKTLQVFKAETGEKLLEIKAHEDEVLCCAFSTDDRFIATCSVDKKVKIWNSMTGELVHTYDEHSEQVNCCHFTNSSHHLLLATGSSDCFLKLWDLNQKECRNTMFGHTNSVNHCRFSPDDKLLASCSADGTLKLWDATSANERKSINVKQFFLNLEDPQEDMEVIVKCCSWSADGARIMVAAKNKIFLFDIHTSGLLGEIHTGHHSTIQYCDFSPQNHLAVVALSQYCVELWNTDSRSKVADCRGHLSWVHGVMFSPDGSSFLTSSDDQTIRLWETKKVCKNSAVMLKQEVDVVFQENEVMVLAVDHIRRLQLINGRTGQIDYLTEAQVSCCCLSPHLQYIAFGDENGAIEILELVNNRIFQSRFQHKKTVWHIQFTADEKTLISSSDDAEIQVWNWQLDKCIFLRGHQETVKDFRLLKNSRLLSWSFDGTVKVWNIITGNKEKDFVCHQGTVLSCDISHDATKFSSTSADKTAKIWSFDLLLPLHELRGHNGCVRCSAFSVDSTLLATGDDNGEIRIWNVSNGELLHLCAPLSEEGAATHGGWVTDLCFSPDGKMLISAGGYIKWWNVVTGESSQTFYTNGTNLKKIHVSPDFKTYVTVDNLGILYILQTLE

[22] = target: T5, High affinity choline transporter 1 (Homo sapiens, UniProt Q9GZV3); experiment: CHT inhibitors, dose response, cell-based, 5-point CRC, membrane potential dye (AID 504840); format: functional
T5 sequence (Q9GZV3 whole entry): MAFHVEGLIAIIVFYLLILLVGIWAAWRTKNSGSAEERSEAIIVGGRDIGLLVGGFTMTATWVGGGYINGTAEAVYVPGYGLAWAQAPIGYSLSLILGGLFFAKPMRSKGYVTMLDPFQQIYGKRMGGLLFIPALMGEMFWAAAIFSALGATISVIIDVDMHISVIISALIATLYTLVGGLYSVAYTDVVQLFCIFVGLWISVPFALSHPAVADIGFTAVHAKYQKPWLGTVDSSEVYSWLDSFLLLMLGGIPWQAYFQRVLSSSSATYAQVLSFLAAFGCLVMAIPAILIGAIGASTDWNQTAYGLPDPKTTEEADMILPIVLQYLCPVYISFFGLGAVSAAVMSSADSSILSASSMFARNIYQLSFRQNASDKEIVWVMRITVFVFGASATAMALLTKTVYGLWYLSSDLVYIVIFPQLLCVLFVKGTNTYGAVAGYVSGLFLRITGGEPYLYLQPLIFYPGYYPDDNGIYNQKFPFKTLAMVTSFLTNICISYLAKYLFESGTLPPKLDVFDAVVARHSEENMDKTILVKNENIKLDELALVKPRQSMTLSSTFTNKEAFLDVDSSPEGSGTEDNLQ

[23] = off-target signal loss in HeLa-CEM21 co-culture – HeLa F-luc CTL cells, cherry-picked, counter-screen for HIV-1 Env fusion inhibitor project, dose response (AID 652040); format: functional, cell-based;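 further: potency for signal decrease marking cytotoxic or nonspecific inhibition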
[24] = THP-1 cell cytotoxicity, dose response, cytotoxicity control for Vif-APOBEC3G degradation inhibitor project, THP-1 cells (AID 1117359); format: functional; conditions: Human immunodeficiency virus 1, THP-1

Structure (SMILES): Cc1ccc(S(=O)(=O)N(C)C[C@@H]2Oc3ccc(NC(=O)C4CCCCC4)cc3CC(=O)N([C@@H](C)CO)C[C@@H]2C)cc1
- AC50 [1]: 2 µM (active)
- AC50 [2]: 3.75 µM (active)
- AC50 [3]: 12.2 µM (active)

Structure (SMILES): O=S(=O)(c1ccc(F)cc1)c1snnc1-c1ccccc1
- AC50 [4]: 46.5 µM (active)
- AC50 [5]: 5.8 µM (active)
- EC50 [6]: 4.69 µM (inconclusive)
- AC50 [7]: 9.39 µM (active)
- AC50 [8]: 6.26 µM (active)
- AC50 [9]: 11.1 µM (active)
- EC50 [10]: 6.51 µM (inconclusive)
- AC50 [11]: 15.1 µM (active)
- CC50 [12]: 6.75 µM (active)
- AC50 [13]: 4.15 µM (active)
- EC50 [14]: 6.66 µM (inconclusive)
- EC50 [15]: 7.55 µM (active)

Structure (SMILES): O=C(/C=C/c1ccccc1)c1ccc2ccccc2c1
- CC50 [12]: > 25 µM (active)

Structure (SMILES): CC(C)CC(=O)NC(=S)Nc1ccc(N2CCN(C(=O)c3cccs3)CC2)cc1
- CC50 [16]: 18.2 µM (active)
- AC50 [17]: > 70 µM (inactive)
- AC50 [18]: 41.2 µM (active)
- AC50 [19]: 2.54 µM (active)

Structure (SMILES): CCOc1cc(/C=C/C(=O)Nc2ccc(C(=O)NCCN(CC)CC)cc2)ccc1OCC(C)C
- AC50 [4]: 7.47 µM (active)
- AC50 [7]: 35 µM (active)
- AC50 [9]: 7.77 µM (active)
- IC50 [20]: > 20 µM (inactive)
- AC50 [13]: 7.83 µM (active)
- IC50 [21]: 28.5 µM (active)

Structure (SMILES): Cc1nn(-c2ccccc2)c(O)c1/C=N/NC(=O)c1ccoc1C
- CC50 [16]: 4.71 µM (active)
- IC50 [21]: 11.2 µM (active)

Structure (SMILES): CN(Cc1cccs1)c1ncnc2sccc12
- IC50 [22]: 4.57 µM (active)
- AC50 [1]: 1.3 µM (active)
- AC50 [23]: 56.6 µM (active)
- AC50 [3]: 16.9 µM (active)

Structure (SMILES): CCN1C[C@@H]2[C@@H]3C(=O)N(Cc4ccccc4)C(=O)[C@@H]3[C@](CC)(C1=O)N2C(=O)c1ccc(C(C)(C)C)cc1
- AC50 [1]: 20.2 µM (active)
- AC50 [23]: 15.4 µM (active)
- AC50 [2]: 5.77 µM (active)
- AC50 [3]: 4.4 µM (active)

Structure (SMILES): CCc1nc2cc(Cc3ccc4[nH]c(CC)nc4c3)ccc2[nH]1
- CC50 [24]: 15.5 µM (active)

Reference: ChEMBL document CHEMBL1201862, “PubChem BioAssay data set” (2004)
